Laboratory results reported in PubChem BioAssay AID1985 (Southern Research Specialized Biocontainment Screening …, 2009).

Tested on: S. Typhi PhoP-promoter GFP reporter, fluorescence, 4 h
Test: PhoP regulon inhibitor project modified counter assay, GFP fluorescence readout, dose response (AID 1985)

Row | Compound | IC50
1 | COc1cccc2c(=O)c(C(=O)O)c[nH]c12 | 106 µM
2 | COc1nsnc1NS(=O)(=O)c1ccc(NC(=S)NC(=O)c2cccnc2)cc1 | 23.6 µM
3 | Fc1ccc(CCNCc2ccccc2Cl)cc1 | 69.7 µM
4 | O=C(Nc1cccc(NC(=O)c2ccccc2Cl)c1)c1ccc([N+](=O)[O-])o1 | 17.5 µM
5 | CCOC(=O)Cn1c(=N)n(CCOc2ccc3ccccc3c2)c2ccccc21 | 79.1 µM
6 | O=c1[nH]cc(N=Cc2cc([N+](=O)[O-])ccc2O)c(=O)[nH]1 | 39.7 µM
7 | O=C(C[n+]1cnn(CC(=O)c2ccc(Cl)cc2Cl)c1)c1ccc([N+](=O)[O-])cc1 | 42.8 µM
8 | O=[N+]([O-])c1cc(CN2CCN(c3cccc(C(F)(F)F)c3)CC2)c2cccnc2c1O | 34.6 µM
9 | Cc1cc(C)nc(SCC(=O)Nc2sc3c(c2C#N)CCC(C)C3)n1 (stereo not drawn) | 41.8 µM
10 | O=C(Nc1nc(-c2ccccn2)cs1)c1ccc(Cl)s1 | 21.5 µM
11 | Cc1cc(C2CCCCC2)n(O)c(=O)c1 | 20.9 µM
12 | COc1cc([N+](=O)[O-])cc(/C=N/NC(=O)CSc2ccccn2)c1O | 77.7 µM
13 | CCCCCC(=O)NNC(=S)NC(C)=O | 22.9 µM
14 | O=C(Nc1nnc(C2COc3ccccc3O2)o1)c1ccc(F)cc1 (stereo not drawn) | 40.9 µM
15 | ON=C1/C(=N\O)CC2(C/C1=N/O)OCCO2 | 112 µM
16 | CCN1CCCC1CNC(=O)c1cc2cc(F)ccc2[nH]1 (stereo not drawn) | 91 µM
17 | Oc1cc(Cl)ccc1Oc1ccc(Cl)cc1Cl | 0.369 µM
18 | CN1CCN(C2=Cc3ccccc3Sc3cc(F)c(Cl)cc32)CC1 | 106 µM
19 | COC(=O)C1C(O)C(C)C(O)C(C)/C=C\C=C(/C)C(=O)Nc2c(C)c(OC(C)=O)c3c(c2O)C(=O)C(C)=C2OCOC(=C23)/C(C)=C/C(C)(O)C(O)C(C)C1O (stereo not drawn) | 24.4 µM
20 | Nc1cccc2nc3ccccc3cc12 | 44.5 µM

Row | Compound | IC50
21 | CCN1/C(=C/C(C)=C/c2sc3ccccc3[n+]2CC)Sc2ccccc21 | 12.6 µM
22 | Oc1ccccc1Nc1nc(NCc2ccco2)c2ccccc2n1 | 137 µM
23 | Cc1ccc(C(OCC(O)CNCc2ccc(F)cc2)c2ccccc2)cc1 (stereo not drawn) | 74.4 µM
24 | CN(C)CCNc1oc(COc2ccc(-c3ccccc3)cc2)nc1C#N | 78.8 µM
25 | NC1=NC[C@H](CC2CCCCC2)N1CCc1cc(C(F)(F)F)cc(C(F)(F)F)c1 | 37.6 µM
26 | CC1CCc2cc(F)cc3c(=O)c(C(=O)O)cn1c23 (stereo not drawn) | 9.57 µM
27 | O=C(C[n+]1cc(Br)cc2ccccc21)c1ccc(Cl)cc1 | 57.8 µM
28 | CCOC(=O)N1CCN(C(=O)c2cn(CC)c3cc(N4CCN(C)CC4)c(F)cc3c2=O)CC1 | 7.67 µM
29 | CCOC(=O)C1Nc2c(F)cc(C)cc2C2c3ccccc3CC12 (stereo not drawn) | 136 µM
30 | CCCOc1ccc(C(=O)NNC(=S)NC(=O)CC)cc1 | 78.8 µM
31 | Cc1ccc2c(c1)C1CN(C)CCC1N2Sc1ccccc1[N+](=O)[O-] (stereo not drawn) | 135 µM
32 | CCCNC1=C(C)C(=O)C2=C(C1=O)C(COC(N)=O)[C@]1(OC)C3NC3CN21 (stereo partly drawn) | 51.8 µM
33 | Cc1nonc1C(=O)N/N=C/c1ccc([N+](=O)[O-])o1 | 24.7 µM
34 | O=c1oc2ccccc2nc1/C=C(\O)c1ccccc1 | 23.9 µM
35 | CN(C)CC/C=C1/c2ccccc2Sc2ccc(Cl)cc21 | 86.2 µM
36 | CCN(CC)C(=S)SSC(=S)N(CC)CC | 21.8 µM
37 | Nc1nonc1C(=O)N/N=C/c1cc(Br)ccc1O | 12.7 µM
38 | CC(=O)NC(c1cccs1)c1cc([N+](=O)[O-])c2cccnc2c1O (stereo not drawn) | 31.3 µM
39 | O=C(CCC(=O)Nc1ccc(Cl)cc1Cl)N/N=C/c1ccc([N+](=O)[O-])o1 | 33.9 µM
40 | CN(C)c1ccc2nc3ccc(=[N+](C)C)cc-3sc2c1 | 22.7 µM

Row | Compound | IC50
41 | O=C(N/N=C/c1cc(Br)ccc1O)c1ccncc1 | 29.9 µM
42 | O=C1OCC(CO)(CO)N=C1NNc1ccc(Cl)c(Cl)c1 | 26.1 µM
43 | CCN(CC)CCNc1nc(-c2ccc(OC)cc2)c(-c2ccc(OC)cc2)s1 | < 0.23 µM
44 | CCCCOc1ccc(C(=O)NNC(=S)NC(=O)CC)cc1 | 38.9 µM
45 | CCCCC(=O)NC(=S)NNC(=O)CC | 50.2 µM
46 | CCN1CCN(C(=O)c2cc3cc(F)ccc3[nH]2)CC1 | 97.5 µM
47 | CCCCCOc1ccc(C)cc1CN(CCCl)CCCl | 138 µM
48 | CCCCCCCCCCn1c2c(c(=N)c3c1CCC3)CCC2 | 144 µM
49 | Nc1nnc(-c2cccc(Cl)c2Cl)c(N)n1 | 33 µM
50 | COc1ccc(CNCC(O)COc2ccc(C(C)(C)c3ccccc3)cc2)cc1 (stereo not drawn) | 37.1 µM
51 | C1=C(CCNc2ncnc3c2[nH]c2ccccc23)CCCC1 | 115 µM
52 | COc1ccc(C(=O)NC(=S)NNC(=O)c2cnccn2)cc1OC | 60.1 µM
53 | Cc1cccc(C(=O)NCCC(=O)Nc2ccc(F)c([N+](=O)[O-])c2)c1 | 144 µM
54 | COc1ccc(C(=O)CCN2CCc3cc(OC)c(OC)cc3C2)cc1 | 122 µM
55 | C[C@H]1c2cccc(O)c2C(O)=C2C(=O)[C@]3(O)C(O)=C(C(N)=O)C(=O)[C@@H](N(C)C)[C@@H]3[C@@H](O)[C@@H]21 | 1.97 µM
56 | Cc1ccc2c(c1)N/C(=C(\C=C(/Cl)[N+](=O)[O-])[N+](=O)[O-])N2 | 81.1 µM
57 | Cn1c(N/N=C/c2c[nH]c3ccccc23)nc2ccccc21 | 113 µM
58 | Cc1cc(C)n(-c2nc(SCCN(C)C)c3c4c(sc3n2)CCCC4)n1 | 80.1 µM
